What was measured:
[1] = biological target: Coagulation factor X (Homo sapiens, UniProt P00742); assay: In vitro inhibition of coagulation factor X
[2] = biological target: T1, Coagulation factor VII (Homo sapiens, UniProt P08709); assay: In vitro inhibition of human coagulation factor VIIa
T1 sequence (P08709 whole entry): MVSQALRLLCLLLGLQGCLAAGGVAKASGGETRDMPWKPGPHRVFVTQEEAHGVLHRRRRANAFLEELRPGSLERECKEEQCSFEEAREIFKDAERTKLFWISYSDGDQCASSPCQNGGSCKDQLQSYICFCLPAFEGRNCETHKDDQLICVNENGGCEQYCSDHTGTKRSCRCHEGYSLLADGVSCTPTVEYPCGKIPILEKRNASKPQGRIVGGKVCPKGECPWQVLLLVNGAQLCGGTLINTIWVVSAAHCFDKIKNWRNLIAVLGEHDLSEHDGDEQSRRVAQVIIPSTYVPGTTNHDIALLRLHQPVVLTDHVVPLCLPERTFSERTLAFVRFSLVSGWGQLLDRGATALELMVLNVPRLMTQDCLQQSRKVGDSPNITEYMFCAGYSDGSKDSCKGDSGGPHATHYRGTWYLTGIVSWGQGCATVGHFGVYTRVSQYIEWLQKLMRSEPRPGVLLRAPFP

[3] = biological target: Prothrombin (Homo sapiens, UniProt P00734); assay: In vitro inhibition of thrombin

Coagulation factor X, sequence (P00742 41-179 limits assumed): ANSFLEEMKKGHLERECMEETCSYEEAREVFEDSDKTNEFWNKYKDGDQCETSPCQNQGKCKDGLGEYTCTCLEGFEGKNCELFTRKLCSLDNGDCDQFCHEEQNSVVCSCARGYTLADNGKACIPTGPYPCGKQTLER
Coagulation factor X, sequence (P00742 235-488 limits assumed): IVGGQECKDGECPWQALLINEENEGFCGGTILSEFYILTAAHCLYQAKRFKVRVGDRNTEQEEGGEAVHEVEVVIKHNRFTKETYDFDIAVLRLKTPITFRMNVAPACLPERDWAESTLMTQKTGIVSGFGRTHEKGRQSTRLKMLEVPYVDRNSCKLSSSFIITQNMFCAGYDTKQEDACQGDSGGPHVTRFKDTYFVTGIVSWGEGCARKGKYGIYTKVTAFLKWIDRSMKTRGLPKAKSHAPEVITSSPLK

**Q.** `C[C@H](NC(=O)CNC(=O)Nc1ccc(C(=N)N)cc1)c1ccc(Br)cc1` was tested. Which Ki [1] did it give?
**A.** Its Ki is > 10 µM.

**Q.** What about the Ki [2] of the same molecule?
**A.** Its Ki is 0.156 µM.

**Q.** And the Ki [3]?
**A.** The Ki was 6.76 µM.

**Q.** For `CC(NC(=O)CNC(=O)Nc1ccc(C(=N)N)cc1)c1ccc(Oc2ccccc2)cc1` (stereo not given), which Ki [1] is on record?
**A.** The Ki was > 10 µM.

**Q.** What about the Ki [2] of the same molecule?
**A.** Its Ki is 0.078 µM.

**Q.** What about the Ki [3] of the same molecule?
**A.** The Ki was 9.1 µM.

**Q.** Which results are given for `CC(NC(=O)CNC(=O)Nc1ccc(C(=N)N)cc1)c1ccc(N2CCOCC2)cc1` (stereo not given)?
**A.** Ki [1]: > 10 µM; Ki [2]: 0.142 µM; Ki [3]: 3.2 µM

**Q.** For `CC(NC(=O)CNC(=O)Nc1ccc(C(=N)N)cc1)c1ccc(C(=O)Nc2ccccc2)cc1` (stereo not given), which Ki [1] is on record?
**A.** Its Ki is > 10 µM.

**Q.** And the Ki [2]?
**A.** Its Ki is 0.02 µM.

**Q.** What about the Ki [3] of the same molecule?
**A.** Its Ki is 12.1 µM.

**Q.** For `CC(NC(=O)CNC(=O)Nc1ccc(C(=N)N)cc1)c1cccc(OCc2ccccc2)c1` (stereo not given), which Ki [2] is on record?
**A.** Its Ki is 0.256 µM.

**Q.** What does the source list for `CC(NC(=O)CNC(=O)Nc1ccc(C(=N)N)cc1)c1ccc(NC(=O)c2cccc(Oc3ccccc3)c2)cc1` (stereo not given)?
**A.** Ki [1]: > 10 µM; Ki [3]: 33.2 µM

**Q.** `COc1cccc(COc2ccc(C(C)NC(=O)CNC(=O)Nc3ccc(C(=N)N)cc3)cc2)c1` (stereo not given) was tested. Which Ki [1] did it give?
**A.** Its Ki is > 10 µM.

**Q.** And the Ki [2]?
**A.** The Ki was 0.02 µM.

**Q.** And the Ki [3]?
**A.** Its Ki is 2.3 µM.

**Q.** Which Ki [2] does the source give for `CC(NC(=O)CNC(=O)Nc1ccc(C(=N)N)cc1)c1ccc(OCc2ccccc2)cc1` (stereo not given) here?
**A.** Its Ki is 0.133 µM.

**Q.** For `C[C@H](NC(=O)CNC(=O)Nc1ccc(C(=N)N)cc1)c1ccc2ccccc2c1`, which Ki [1] is on record?
**A.** The Ki was 6.23 µM.

**Q.** What about the Ki [3] of the same molecule?
**A.** Its Ki is 3.18 µM.

**Q.** For `CC(NC(=O)CNC(=O)Nc1ccc(C(=N)N)cc1)c1ccc(N2CCOCC2)c(C(F)(F)F)c1` (stereo not given), which Ki [1] is on record?
**A.** Its Ki is > 10 µM.

**Q.** And the Ki [2]?
**A.** Its Ki is 0.03 µM.

**Q.** What about the Ki [3] of the same molecule?
**A.** Its Ki is 1.9 µM.

**Q.** With `CC(NC(=O)CNC(=O)Nc1ccc(C(=N)N)cc1)c1ccc(Cl)c(Cl)c1` (stereo not given) as the molecule, how does the Ki [2] read?
**A.** Its Ki is 0.077 µM.

**Q.** For `CC(NC(=O)CNC(=O)Nc1ccc(C(=N)N)cc1)c1ccc(Cc2ccccc2)cc1` (stereo not given), which Ki [2] is on record?
**A.** The Ki was 0.19 µM.

**Q.** How did the Ki [1] turn out when `CC(NC(=O)CNC(=O)Nc1ccc(C(=N)N)cc1)c1ccc(NC(=O)C2CC2)cc1` (stereo not given) was run?
**A.** Its Ki is > 10 µM.

**Q.** What about the Ki [2] of the same molecule?
**A.** The Ki was 0.047 µM.

**Q.** And the Ki [3]?
**A.** Its Ki is 14.5 µM.

**Q.** For `CC(NC(=O)CNC(=O)Nc1ccc(C(=N)N)cc1)c1ccc(OCc2cccc(Cl)c2)cc1` (stereo not given), which Ki [1] is on record?
**A.** The Ki was > 10 µM.

**Q.** And the Ki [2]?
**A.** Its Ki is 0.023 µM.

**Q.** And the Ki [3]?
**A.** The Ki was 2.3 µM.

**Q.** What does the source list for `CC(=O)Nc1ccc(C(C)NC(=O)CNC(=O)Nc2ccc(C(=N)N)cc2)cc1` (stereo not given)?
**A.** Ki [1]: > 10 µM; Ki [2]: 0.196 µM; Ki [3]: > 50 µM

**Q.** With `Cc1cccc(C(=O)Nc2ccc(C(C)NC(=O)CNC(=O)Nc3ccc(C(=N)N)cc3)cc2)c1` (stereo not given) as the molecule, how does the Ki [1] read?
**A.** The Ki was > 10 µM.

**Q.** And the Ki [2]?
**A.** The Ki was 0.026 µM.

**Q.** What about the Ki [3] of the same molecule?
**A.** The Ki was 10.9 µM.

**Q.** With `CC(NC(=O)CNC(=O)Nc1ccc(C(=N)N)cc1)c1ccc(NC(=O)c2ccccc2)cc1` (stereo not given) as the molecule, how does the Ki [1] read?
**A.** Its Ki is 4.6 µM.

**Q.** What about the Ki [2] of the same molecule?
**A.** Its Ki is 0.034 µM.

**Q.** And the Ki [3]?
**A.** Its Ki is 14.8 µM.

**Q.** `COc1ccc(Oc2ccc(C(C)NC(=O)CNC(=O)Nc3ccc(C(=N)N)cc3)cc2)cc1` (stereo not given) was tested. Which Ki [1] did it give?
**A.** The Ki was 10.7 µM.

**Q.** What about the Ki [3] of the same molecule?
**A.** Its Ki is 9.8 µM.

**Q.** How did the Ki [2] turn out when `C[C@@H](NC(=O)CNC(=O)Nc1ccc(C(=N)N)cc1)c1ccc2ccccc2c1` was run?
**A.** The Ki was 7 µM.

**Q.** With `CC(NC(=O)CNC(=O)Nc1ccc(C(=N)N)cc1)c1ccc(NC(=O)C2CCNCC2)cc1` (stereo not given) as the molecule, how does the Ki [1] read?
**A.** The Ki was > 10 µM.

**Q.** What about the Ki [3] of the same molecule?
**A.** The Ki was 68.5 µM.

**Q.** What does the source list for `CC(NC(=O)CNC(=O)Nc1ccc(C(=N)N)cc1)c1ccc(N2CCOCC2)c(Br)c1` (stereo not given)?
**A.** Ki [1]: > 10 µM; Ki [2]: 0.015 µM; Ki [3]: 0.65 µM

**Q.** For `CC(NC(=O)CNC(=O)Nc1ccc(C(=N)N)cc1)c1ccc(C(=O)Nc2cccc(Oc3ccccc3)c2)cc1` (stereo not given), which Ki [1] is on record?
**A.** The Ki was > 10 µM.

**Q.** And the Ki [2]?
**A.** Its Ki is 0.043 µM.

**Q.** What about the Ki [3] of the same molecule?
**A.** Its Ki is 11.9 µM.

**Q.** What does the source list for `COC(=O)c1cc(C(C)NC(=O)CNC(=O)Nc2ccc(C(=N)N)cc2)ccc1OCc1ccccc1` (stereo not given)?
**A.** Ki [1]: > 10 µM; Ki [3]: 0.5 µM

**Q.** How did the Ki [1] turn out when `N=C(N)c1ccc(NC(=O)NCC(=O)NCc2ccc(Cl)c(Cl)c2)cc1` was run?
**A.** Its Ki is 14.5 µM.
